Test results from article PMC7523345 (Investigational new drugs, 2018).
Entries after “also recorded” stand apart in the source; their conditions may differ.

Test: Phase I dose escalation study: safety, tolerability, DLT and MTD
Type: in vivo

Cc1cccc2c1NC(=O)[C@@H](NC(=O)[C@H](CCC(F)(F)F)[C@H](CCC(F)(F)F)C(N)=O)N=C2c1cccc(F)c1 [BMS-986115]
Hypokalaemia (drug related AE, Grade 3 and 4) (Arm B BIW 4 mg (N = 2)): 0 n (%)
Hypokalaemia (drug related AE, all grades) (Arm B BIW 4 mg (N = 2)): 1 (50) n (%)
Hyponatraemia (drug related AE, Grade 3 and 4) (Arm B BIW 4 mg (N = 2)): 0 n (%)
Hyponatraemia (drug related AE, all grades) (Arm B BIW 4 mg (N = 2)): 0 n (%)
Hypophosphataemia (drug related AE, Grade 3 and 4) (Arm B BIW 4 mg (N = 2)): 1 (50) n (%)
Hypophosphataemia (drug related AE, all grades) (Arm B BIW 4 mg (N = 2)): 1 (50) n (%)
Ileus (drug related AE, Grade 3 and 4) (Arm B BIW 4 mg (N = 2)): 0 n (%)
Increased upper airway secretion (drug related AE, all grades) (Arm B BIW 4 mg (N = 2)): 1 (50) n (%)
Laryngeal pain (drug related AE, all grades) (Arm B BIW 4 mg (N = 2)): 0 n (%)
Leucocytosis (drug related AE, Grade 3 and 4) (Arm B BIW 4 mg (N = 2)): 0 n (%)
Mouth ulceration (drug related AE, all grades) (Arm B BIW 4 mg (N = 2)): 0 n (%)
Nausea (drug related AE, Grade 3 and 4) (Arm B BIW 4 mg (N = 2)): 0 n (%)
Nausea (drug related AE, all grades) (Arm B BIW 4 mg (N = 2)): 0 n (%)
Pruritus (drug related AE, Grade 3 and 4) (Arm B BIW 4 mg (N = 2)): 0 n (%)
Pruritus (drug related AE, all grades) (Arm B BIW 4 mg (N = 2)): 1 (50) n (%)
Pulmonary embolism (drug related AE, Grade 3 and 4) (Arm B BIW 4 mg (N = 2)): 0 n (%)
Rash (drug related AE, all grades) (Arm B BIW 4 mg (N = 2)): 0 n (%)
Rash maculopapular (drug related AE, all grades) (Arm B BIW 4 mg (N = 2)): 1 (50) n (%)
Sinusitis (drug related AE, all grades) (Arm B BIW 4 mg (N = 2)): 0 n (%)
Urticaria (drug related AE, Grade 3 and 4) (Arm B BIW 4 mg (N = 2)): 0 n (%)
Vision blurred (drug related AE, all grades) (Arm B BIW 4 mg (N = 2)): 0 n (%)
Vomiting (drug related AE, Grade 3 and 4) (Arm B BIW 4 mg (N = 2)): 0 n (%)
Vomiting (drug related AE, all grades) (Arm B BIW 4 mg (N = 2)): 0 n (%)
Weight decreased (drug related AE, all grades) (Arm B BIW 4 mg (N = 2)): 0 n (%)
Description of DLT (Arm B BIW 8 mg): Gr 3 diarrhoea; Gr 3 nausea/dehydration/anorexia with Gr 2 fatigue; also recorded: G3 diarrhoea; also recorded: G3 nausea/dehydration/anorexia
Description of study drug toxicity that led to treatment discontinuation (Arm B BIW 8 mg): G3 Diarrhoea (N = 1); also recorded: G3 Dehydration and anorexia (N = 1)
Abdominal distension (drug related AE, all grades) (Arm B BIW 8 mg (N = 8)): 0 n (%)
Abdominal pain (drug related AE, Grade 3 and 4) (Arm B BIW 8 mg (N = 8)): 0 n (%)
Abdominal pain (drug related AE, all grades) (Arm B BIW 8 mg (N = 8)): 0 n (%)
Blood creatinine increased (drug related AE, all grades) (Arm B BIW 8 mg (N = 8)): 1 (13) n (%)
Colitis (drug related AE, Grade 3 and 4) (Arm B BIW 8 mg (N = 8)): 0 n (%)
Cough (drug related AE, Grade 3 and 4) (Arm B BIW 8 mg (N = 8)): 0 n (%)
Cough (drug related AE, all grades) (Arm B BIW 8 mg (N = 8)): 1 (13) n (%)
Decreased Appetite (drug related AE, Grade 3 and 4) (Arm B BIW 8 mg (N = 8)): 1 (13) n (%)
Decreased Appetite (drug related AE, all grades) (Arm B BIW 8 mg (N = 8)): 5 (63) n (%)
Dehydration (drug related AE, Grade 3 and 4) (Arm B BIW 8 mg (N = 8)): 1 (13) n (%)
Dehydration (drug related AE, all grades) (Arm B BIW 8 mg (N = 8)): 2 (25) n (%)
Dermatitis acneiform (drug related AE, all grades) (Arm B BIW 8 mg (N = 8)): 0 n (%)
Diarrhoea (drug related AE, Grade 3 and 4) (Arm B BIW 8 mg (N = 8)): 2 (25) n (%)
Diarrhoea (drug related AE, all grades) (Arm B BIW 8 mg (N = 8)): 7 (88) n (%)
Dry mouth (drug related AE, all grades) (Arm B BIW 8 mg (N = 8)): 1 (13) n (%)
Dry skin (drug related AE, all grades) (Arm B BIW 8 mg (N = 8)): 2 (25) n (%)
Dysgeusia (drug related AE, all grades) (Arm B BIW 8 mg (N = 8)): 1 (13) n (%)
Dyspepsia (drug related AE, all grades) (Arm B BIW 8 mg (N = 8)): 0 n (%)
Dysphonia (drug related AE, all grades) (Arm B BIW 8 mg (N = 8)): 1 (13) n (%)
Fatigue (drug related AE, Grade 3 and 4) (Arm B BIW 8 mg (N = 8)): 0 n (%)
Fatigue (drug related AE, all grades) (Arm B BIW 8 mg (N = 8)): 4 (50) n (%)
Flatulence (drug related AE, all grades) (Arm B BIW 8 mg (N = 8)): 2 (25) n (%)
Hypocalcaemia (drug related AE, Grade 3 and 4) (Arm B BIW 8 mg (N = 8)): 1 (13) n (%)
Hypocalcaemia (drug related AE, all grades) (Arm B BIW 8 mg (N = 8)): 1 (13) n (%)
Hypokalaemia (drug related AE, Grade 3 and 4) (Arm B BIW 8 mg (N = 8)): 0 n (%)
Hypokalaemia (drug related AE, all grades) (Arm B BIW 8 mg (N = 8)): 2 (25) n (%)
Hyponatraemia (drug related AE, Grade 3 and 4) (Arm B BIW 8 mg (N = 8)): 1 (13) n (%)
Hyponatraemia (drug related AE, all grades) (Arm B BIW 8 mg (N = 8)): 1 (13) n (%)
Hypophosphataemia (drug related AE, Grade 3 and 4) (Arm B BIW 8 mg (N = 8)): 4 (50) n (%)
Hypophosphataemia (drug related AE, all grades) (Arm B BIW 8 mg (N = 8)): 5 (63) n (%)
Ileus (drug related AE, Grade 3 and 4) (Arm B BIW 8 mg (N = 8)): 0 n (%)
Increased upper airway secretion (drug related AE, all grades) (Arm B BIW 8 mg (N = 8)): 2 (25) n (%)
Laryngeal pain (drug related AE, all grades) (Arm B BIW 8 mg (N = 8)): 0 n (%)
Leucocytosis (drug related AE, Grade 3 and 4) (Arm B BIW 8 mg (N = 8)): 1 (13) n (%)
Mouth ulceration (drug related AE, all grades) (Arm B BIW 8 mg (N = 8)): 1 (13) n (%)
Nausea (drug related AE, Grade 3 and 4) (Arm B BIW 8 mg (N = 8)): 1 (13) n (%)
Nausea (drug related AE, all grades) (Arm B BIW 8 mg (N = 8)): 6 (75) n (%)
Pruritus (drug related AE, Grade 3 and 4) (Arm B BIW 8 mg (N = 8)): 0 n (%)
Pruritus (drug related AE, all grades) (Arm B BIW 8 mg (N = 8)): 2 (25) n (%)
Pulmonary embolism (drug related AE, Grade 3 and 4) (Arm B BIW 8 mg (N = 8)): 0 n (%)
Rash (drug related AE, all grades) (Arm B BIW 8 mg (N = 8)): 3 (38) n (%)
Rash maculopapular (drug related AE, all grades) (Arm B BIW 8 mg (N = 8)): 2 (25) n (%)
Sinusitis (drug related AE, all grades) (Arm B BIW 8 mg (N = 8)): 0 n (%)
Urticaria (drug related AE, Grade 3 and 4) (Arm B BIW 8 mg (N = 8)): 0 n (%)
